Test results reported in patent publication US20120178147A1, “MICROBIAL CULTURES AND METHODS FOR ANAEROBIC BIOREMEDIATION” (priority 2009, published 2012).
Entries after “also recorded” stand apart in the source; their conditions may differ. Where two headings read alike, the source gives them in different places.

Key:
Dehalococcoides = assay: qRT-PCR of Dehalococcoides 16S rRNA genes in DehaloR̂2 cultures; assay type: cell-based; conditions: for effect on growth / gene copy number of Dehalococcoides in DehaloR̂2 cultures: 1.5 μM TCC or 35 μM TCS
Description: Quantitative real-time PCR (qRT-PCR) was performed for enumeration of general 16S rRNA genes and Dehalococcoides 16S rRNA genes in culture DehaloR̂2 and Bio-Dechlor INOCULUM. The primers used for general 16S rRNA genes were Bac1055F (5′-ATG GYT GTC GTC ACCT-3′) and Bac1392R (5′-ACG GGC GGT GTG TAC-3′) (Ritalahti et al., 2006), and the probe was Bac16sTaq (FAM-CAA CGA GCG CAA CCC/3-BHQ-1/). The final volume of PCR reactions was 10 μL, and the final concentration of each chemical in a single reaction tube was: 1× RealMasterMix (Fisher Scientific, Pittsburgh, Pa.), 300 nM Probe, 300 nM each Primer, and 130 nM DNA samples. The PCR conditions were as follows: 2 min at 95° C. followed by 40 cycles of 10 s at 95° C., 20 s at 56° C. and 20 s at 68° C. The primers used for Dehalococcoides 16S rRNA genes were Dhc1200F (5′-CTGGAGCTAATCCCCAAAGCT-3′) and Dhc1271R (5′-CAA CTT CAT GCA GGC GGG-3′), and the probe was Dhc1240Pr (FAM-TCCTCAGTTCGGATTGCAGGC TGAA/3-BHQ-1) (He et al., 2003b). The final volume of PCR reactions was 10 μL, and the final concentration of each chemical in a single reaction tube was: 1× RealMasterMix (Fisher Scientific, Pittsburgh, Pa.), 200 nM Probe, 700 nM each Primer, and 130 nM DNA samples. The PCR conditions were as follows: 2 min at 95° C. followed by 40 cycles of 15 s at 95° C., 20 s at 58° C. and 20 s at 68° C.
Quantitative Real time PCR (qRT-PCR) was carried out in a spectrofluorimetric thermal cycler (Master cycler, epgradient S, Eppendorf). Calibration curves were performed in triplicate and a linear range of 6 orders of magnitude was obtained. Plasmids containing Dehalococcoides strain BAV1 16S rRNA genes were used as standards to construct general 16S rRNA genes and Dehalococcoides 16S rRNA genes calibration curves. The slopes of the calibration curves for general 16S rRNA genes and Dehalococcoides 16S rRNA genes were −3.46 and −3.94, and the Y intercepts were 38 and 44.2, respectively.
DNA Extraction and Quantitative Real-Time PCR. The BDI cultures and DehaloR^2 cultures were shaken vigorously first and then 10 ml of the mixed liquid was removed with a sterile syringe and dispensed into 10 1.5 ml micro centrifuge tubes. These micro centrifuge tubes were then centrifuged at 13,000 rpm for 15 min in order to make a pellet, and the pellet was used for DNA extraction. Qiagen DNeasy Blood & Tissue Kit with modifications to enhance lysis was used for DNA isolation from cultures. DNA samples were stored at −20° C.
Quantitative real-time PCR (qRT-PCR) was performed for enumeration of general 16S rRNA genes and Dehalococcoides 16S rRNA genes in BDI culture without TCC&TCS, BDI culture with 1.5 μM TCC, BDI culture with 35 μM TCS, D DehaloR̂2 culture without TCC&TCS, DehaloR^2 culture with 1.5 μM TCC and DehaloR̂2^2 culture with 35 μM TCS.
The primers used for Dehalococcoides 16S rRNA genes were Dhc1200F (5′-[…]-3′) and Dhc1271R (5′-CAACTTCATGCAGGCGGG-3′), and the probe was Dhc1240Pr (FAM-[…]/3-BHQ-1) (He et al., 2003b). The final volume of PCR reactions was 10 μL, and the final concentration of each chemical in a single reaction tube was: 1× RealMasterMix (Fisher Scientific, Pittsburgh, Pa.), 200 nM Probe, 700 nM each Primer, and 130 nM DNA samples. The PCR conditions were as follows: 2 min at 95° C. followed by 40 cycles of 15 s at 95° C., 20 s at 58° C. and 20 s at 68° C.
The qRT-PCR was carried out in a spectrofluorimetric thermal cycler (Master cycler, epgradient S, Eppendorf). […]

[1] = at 25° C., pH 7; cited from earlier work
[2] = system: Gram-positive bacteria, such as staphylococcus; conditions: cited from earlier work
[3] = system: Gram-negative species and fungi; conditions: cited from earlier work
MRSA = conditions: cited from earlier work
E. coli = conditions: cited from earlier work
P. aeruginosa = conditions: cited from earlier work
[4] = cited from earlier work
[5] = system: algae, aquatic invertebrates and fish; conditions: cited from earlier work
aquatic organisms = conditions: according to PBT Profiler; cited from earlier work
Scenedesmus subspicatus = conditions: cited from earlier work
Rainbow trout = conditions: in vivo; cited from earlier work
North American bullfrog = conditions: alters thyroid hormone-mediated postembryonic development; cited from earlier work
[6] = continuous-flow activated sludge, 0.5 to 2 mg/L TCS (Stasinakis et al., 2007); cited from earlier work

O=C(Nc1ccc(Cl)cc1)Nc1ccc(Cl)c(Cl)c1 [TCC, 3-(4-chlorophenyl)-1-(3,4-dichlorphenyl) urea]
effect on growth / gene copy number of Dehalococcoides in DehaloR̂2 cultures (Dehalococcoides): did not exert any inhibitory effect on the growth of Dehalococcoides
Dehalococcoides 16S rRNA gene copies, day 22 (Dehalococcoides; DehaloR̂2 with 1.5 μM TCC): 3.9×10^7 gene copies/ml
Dehalococcoides 16S rRNA gene copies, day 22 relative to initial (Dehalococcoides; DehaloR̂2 with 1.5 μM TCC): 11.6 times
Dehalococcoides 16S rRNA gene copies, initial (Dehalococcoides; DehaloR̂2 with 1.5 μM TCC): 3.3×10^6 gene copies/ml
Partition Coefficient [1]: 4.9 Log Pow
concentration that effectively inhibits Gram-positive bacteria [2]: 100 to 200 µg/L
concentration needed to inhibit Gram-negative species and fungi [3]: 1000 mg/L
activity in MIC experiments (MRSA): showed activity
activity in MIC experiments (E. coli): not
activity in MIC experiments (P. aeruginosa): not
biodegradation ([4]; TCC 20 μg/L): 60%
biodegradation ([4]; TCC 2000 μg/L): 70%
biodegradation of the dichloroaniline ring ([4]; bench scale CFAS system): 25.9%
biodegradation of the p-chloroaniline ring ([4]; bench scale CFAS system): 56%
Predicted No Effect Concentration (PNEC) [5]: 0.146 µg/L
ratio of PEC/PNEC [5]: 0.009 to 0.34
concentration toxic to aquatic organisms (aquatic organisms): 90000 ng/mL

Oc1cc(Cl)ccc1Oc1ccc(Cl)cc1Cl [TCS, 5-chloro-2-[2,4-dichloro-phenoxy]-phenol]
effect on growth / gene copy number of Dehalococcoides in DehaloR̂2 cultures (Dehalococcoides): almost remained constant; also recorded: significantly inhibited the growth of Dehalococcoides
Partition Coefficient [1]: 4.8 Log Pow
96-h effective concentration (EC50) for growth (Scenedesmus subspicatus): 0.0014 µg/mL
96-h no-observed effect concentration (NOEC) (Scenedesmus subspicatus): 0.69 µg/L
NOEC (Rainbow trout): 34 µg/L
median EC50 (Rainbow trout): 0.35 µg/mL
concentration acting as an endocrine disruptor (North American bullfrog): 0.15 ± 0.03 ng/mL
removed by biodegradation and sorption [6]: 90%
